Measurements reported in paper PMC11157767 (Molecular Cancer, 2024).

Test system: TRIM24-MET-i cells
Protocol: The number of unique and shared differentially expressed genes between each comparison are shown in parentheses. A linear regression line is depicted along with Pearson’s correlation coefficient (r) and its associated p-value. […] Common negatively enriched genesets between all three comparisons are in bold. c, Heatmaps showing expression of Hallmark_Myc_Target_v1/2 genes for indicated cells and treatment comparisons (TRIM-MET cells were treated in vitro, TFG-MET cells in vivo). Select leading edge genes from GSEA are labeled.

## C[C@@H](Oc1cc(-c2cnn(C3CCNCC3)c2)cnc1N)c1c(Cl)ccc(F)c1Cl [Crizotinib]
  ES GOMF_CATALYTIC_ACTIVITY_ACTING_ON_A_TRNA: -0.6982
  ES GOMF_GTPASE_ACTIVITY: -0.4838
  ES GOMF_GUANYL_NUCLEOTIDE_BINDING: -0.4485
  ES GOMF_HYDROLASE_ACTIVITY_ACTING_ON_ACID_ANHYDRIDES: -0.386
  ES GOMF_RRNA_BINDING: -0.7423
  NES GOMF_CATALYTIC_ACTIVITY_ACTING_ON_A_TRNA: -2.2819
  NES GOMF_GTPASE_ACTIVITY: -1.922
  NES GOMF_GUANYL_NUCLEOTIDE_BINDING: -1.812
  NES GOMF_HYDROLASE_ACTIVITY_ACTING_ON_ACID_ANHYDRIDES: -1.664
  NES GOMF_RRNA_BINDING: -2.231
GSEA v. DMSO
  ES GARY_CD5_TARGETS_DN: -0.652
  ES HALLMARK_ADIPOGENESIS: -0.2603
  ES HALLMARK_ALLOGRAFT_REJECTION: -0.4058
  ES HALLMARK_ANDROGEN_RESPONSE: -0.4828
  ES HALLMARK_ANGIOGENESIS: -0.5624
  ES HALLMARK_APICAL_JUNCTION: -0.293
  ES HALLMARK_APICAL_SURFACE: 0.4986
  ES HALLMARK_APOPTOSIS: -0.4398
  ES HALLMARK_CHOLESTEROL_HOMEOSTASIS: 0.2795
  ES HALLMARK_COAGULATION: -0.4513
  ES HALLMARK_COMPLEMENT: -0.5126
  ES HALLMARK_DNA_REPAIR: -0.2541
  ES HALLMARK_E2F_TARGETS: -0.2746
  ES HALLMARK_EPITHELIAL_MESENCHYMAL_TRANSITION: -0.3755
  ES HALLMARK_ESTROGEN_RESPONSE_EARLY: -0.4277
  ES HALLMARK_ESTROGEN_RESPONSE_LATE: -0.3421
  ES HALLMARK_G2M_CHECKPOINT: -0.3012
  ES HALLMARK_GLYCOLYSIS: -0.404
  ES HALLMARK_HEDGEHOG_SIGNALING: -0.4466
  ES HALLMARK_HYPOXIA: -0.3351
  ES HALLMARK_IL2_STAT5_SIGNALING: -0.5189
  ES HALLMARK_IL6_JAK_STAT3_SIGNALING: -0.4268
  ES HALLMARK_INFLAMMATORY_RESPONSE: -0.4921
  ES HALLMARK_INTERFERON_ALPHA_RESPONSE: 0.2583
  ES HALLMARK_INTERFERON_GAMMA_RESPONSE: -0.3093
  ES HALLMARK_KRAS_SIGNALING_DN: 0.3288
  ES HALLMARK_KRAS_SIGNALING_UP: -0.4922
  ES HALLMARK_MITOTIC_SPINDLE: -0.2568
  ES HALLMARK_MTORC1_SIGNALING: -0.5236
  ES HALLMARK_MYC_TARGETS_V1: -0.6267
  ES HALLMARK_MYC_TARGETS_V2: -0.805
  ES HALLMARK_MYOGENESIS: -0.2282
  ES HALLMARK_NOTCH_SIGNALING: -0.4408
  ES HALLMARK_OXIDATIVE_PHOSPHORYLATION: -0.4296
  ES HALLMARK_P53_PATHWAY: -0.2784
  ES HALLMARK_PANCREAS_BETA_CELLS: 0.2429
  ES HALLMARK_PEROXISOME: 0.273
  ES HALLMARK_PI3K_AKT_MTOR_SIGNALING: -0.3625
  ES HALLMARK_PROTEIN_SECRETION: -0.4081
  ES HALLMARK_TGF_BETA_SIGNALING: -0.5775
  ES HALLMARK_TNFA_SIGNALING_VIA_NFKB: -0.5914
  ES HALLMARK_UNFOLDED_PROTEIN_RESPONSE: -0.6237
  ES HALLMARK_UV_RESPONSE_DN: -0.3089
  ES HALLMARK_UV_RESPONSE_UP: -0.4076
  ES HALLMARK_WNT_BETA_CATENIN_SIGNALING: -0.3432
  ES KRIGE_RESPONSE_TO_TOSEDOSTAT_6HR_DN: -0.6237
  ES KRIGE_RESPONSE_TO_TOSEDOSTAT_24HR_DN: -0.6444
  ES LEE_BMP2_TARGETS_DN: -0.6669
  ES WEI_MYCN_TARGETS_WITH_E_BOX: -0.6994
  NES GARY_CD5_TARGETS_DN: -2.697
  NES HALLMARK_ADIPOGENESIS: -0.9905
  NES HALLMARK_ALLOGRAFT_REJECTION: -1.519
  NES HALLMARK_ANDROGEN_RESPONSE: -1.666
  NES HALLMARK_ANGIOGENESIS: -1.626
  NES HALLMARK_APICAL_JUNCTION: -1.114
  NES HALLMARK_APICAL_SURFACE: 1.572
  NES HALLMARK_APOPTOSIS: -1.646
  NES HALLMARK_CHOLESTEROL_HOMEOSTASIS: 0.993
  NES HALLMARK_COAGULATION: -1.59
  NES HALLMARK_COMPLEMENT: -1.9374
  NES HALLMARK_DNA_REPAIR: -0.9367
  NES HALLMARK_E2F_TARGETS: -1.051
  NES HALLMARK_EPITHELIAL_MESENCHYMAL_TRANSITION: -1.427
  NES HALLMARK_ESTROGEN_RESPONSE_EARLY: -1.626
  NES HALLMARK_ESTROGEN_RESPONSE_LATE: -1.298
  NES HALLMARK_G2M_CHECKPOINT: -1.145
  NES HALLMARK_GLYCOLYSIS: -1.5363
  NES HALLMARK_HEDGEHOG_SIGNALING: -1.301
  NES HALLMARK_HYPOXIA: -1.274
  NES HALLMARK_IL2_STAT5_SIGNALING: -1.973
  NES HALLMARK_IL6_JAK_STAT3_SIGNALING: -1.432
  NES HALLMARK_INFLAMMATORY_RESPONSE: -1.856
  NES HALLMARK_INTERFERON_ALPHA_RESPONSE: 0.9765
  NES HALLMARK_INTERFERON_GAMMA_RESPONSE: -1.175
  NES HALLMARK_KRAS_SIGNALING_DN: 1.322
  NES HALLMARK_KRAS_SIGNALING_UP: -1.8648
  NES HALLMARK_MITOTIC_SPINDLE: -0.9855
  NES HALLMARK_MTORC1_SIGNALING: -2.004
  NES HALLMARK_MYC_TARGETS_V1: -2.398
  NES HALLMARK_MYC_TARGETS_V2: -2.6016
  NES HALLMARK_MYOGENESIS: -0.867
  NES HALLMARK_NOTCH_SIGNALING: -1.2742
  NES HALLMARK_OXIDATIVE_PHOSPHORYLATION: -1.635
  NES HALLMARK_P53_PATHWAY: -1.06
  NES HALLMARK_PANCREAS_BETA_CELLS: 0.7197
  NES HALLMARK_PEROXISOME: 1.047
  NES HALLMARK_PI3K_AKT_MTOR_SIGNALING: -1.259
  NES HALLMARK_PROTEIN_SECRETION: -1.414
  NES HALLMARK_TGF_BETA_SIGNALING: -1.842
  NES HALLMARK_TNFA_SIGNALING_VIA_NFKB: -2.258
  NES HALLMARK_UNFOLDED_PROTEIN_RESPONSE: -2.204
  NES HALLMARK_UV_RESPONSE_DN: -1.132
  NES HALLMARK_UV_RESPONSE_UP: -1.522
  NES HALLMARK_WNT_BETA_CATENIN_SIGNALING: -1.0353
  NES KRIGE_RESPONSE_TO_TOSEDOSTAT_6HR_DN: -2.692
  NES KRIGE_RESPONSE_TO_TOSEDOSTAT_24HR_DN: -2.791
  NES LEE_BMP2_TARGETS_DN: -2.874
  NES WEI_MYCN_TARGETS_WITH_E_BOX: -3.001
GSEA, v. DMSO
  ES GOBP_NCRNA_PROCESSING: -0.7604
  ES GOBP_RIBONUCLEOPROTEIN_COMPLEX_BIOGENESIS: -0.7216
  ES GOBP_RIBOSOME_BIOGENESIS: -0.7916
